ChEMBL document CHEMBL6134857, “Novel Spiro-Barbiturates Can Reverse the Action of General Anesthetics on the GABAAR” (J Med Chem, 2025)

What was measured:
Format in all cases: cell membranes
[1] = target: T1, GABA-A receptor; alpha-1/beta-3/gamma-2 (Homo sapiens) (UniProt P14867+P18507+P28472); test: Inhibition of R-mTFD-MPAB-induced [3H]muscimol binding to full length human N-terminal flag-tagged alpha1-beta3-C-terminal 1D4-tagged gamma2 GABAA receptor extracted from Tetracycline-resistant HEK293 cell membrane at 300 uM incubated for 30 mins relative to control
[2] = target: T1, GABA-A receptor; alpha-1/beta-3/gamma-2 (Homo sapiens); test: Inhibition of R-mTFD-MPAB-induced [3H]muscimol binding to full length human N-terminal flag-tagged alpha1-beta3-C-terminal 1D4-tagged gamma2 GABAA receptor extracted from Tetracycline-resistant HEK293 cell membrane assessed as fold change at 300 uM incubated for 30 mins; conditions: filed as modulator
[3] = target: T1, GABA-A receptor; alpha-1/beta-3/gamma-2 (Homo sapiens); test: Effect on [3H]muscimol binding to full length human N-terminal flag-tagged alpha1-beta3-C-terminal 1D4-tagged gamma2 GABAA receptor extracted from Tetracycline-resistant HEK293 cell membrane assessed as [3H]muscimol binding at 300 uM incubated for 30 mins relative to control
[4] = target: T1, GABA-A receptor; alpha-1/beta-3/gamma-2 (Homo sapiens); test: Effect on [3H]muscimol binding to full length human N-terminal flag-tagged alpha1-beta3-C-terminal 1D4-tagged gamma2 GABAA receptor extracted from Tetracycline-resistant HEK293 cell membrane assessed as fold change in [3H]muscimol binding at 300 uM incubated for 30 mins; conditions: filed as modulator

O=C1NC(=O)C2(CCc3ccc(F)cc32)C(=O)N1
inhibition [1]: > 40% | fold change (FC) [2]: 0.73 | Activity [3]: < 10% | fold change (FC) [4]: 0.07

CN1C(=O)N(C)C(=O)C2(CCc3ccccc32)C1=O
fold change (FC) [2]: 0.98 | fold change (FC) [4]: 0.07

CC(C)c1ccc2c(c1)C1(CC2)C(=O)NC(=S)NC1=O
inhibition [1]: > 40% | fold change (FC) [2]: 0.87 | Activity [3]: < 10% | fold change (FC) [4]: 0.54

CCCN1C(=O)NC(=O)C2(CCc3ccccc32)C1=O (stereo in doubt; 1j-2)
fold change (FC) [2]: 0.95 | fold change (FC) [4]: 0.05

CC1CC2(C(=O)NC(=O)NC2=O)c2ccccc21 (stereo in doubt; 11g-2)
fold change (FC) [2]: 0.99 | fold change (FC) [4]: 0.15

O=C1NC(=O)C2(CCc3ccc(Br)cc32)C(=O)N1
inhibition [1]: > 40% | fold change (FC) [2]: 0.9 | Activity [3]: < 10% | fold change (FC) [4]: 0.05

N=C1NC(=O)C2(CCc3ccc(F)cc32)C(=O)N1 (stereo not given)
inhibition [1]: > 40% | fold change (FC) [2]: 0.58 | Activity [3]: < 10% | fold change (FC) [4]: -0.02

Cc1ccc2c(c1)C1(CC2)C(=O)NC(=N)NC1=O (stereo not given)
inhibition [1]: > 40% | fold change (FC) [2]: 0.36 | Activity [3]: < 10% | fold change (FC) [4]: -0.09

CN1C(=O)NC(=O)C2(CCCCc3ccccc32)C1=O (stereo in doubt; 3h-1)
fold change (FC) [2]: 0.93 | fold change (FC) [4]: 0.32

O=C1NC(=O)C2(CCc3ccc(Cl)cc32)C(=O)N1
inhibition [1]: > 40% | fold change (FC) [2]: 0.88 | Activity [3]: < 10% | fold change (FC) [4]: 0.15

CN1C(=O)NC(=O)C2(CCCCc3ccccc32)C1=O (stereo in doubt; 3h-2)
fold change (FC) [2]: 0.98 | fold change (FC) [4]: 0.1

CCN1C(=O)NC(=O)C2(CCc3ccccc32)C1=O (stereo in doubt; 1i-2)
fold change (FC) [2]: 0.86 | fold change (FC) [4]: 0.11

O=C1NC(=NO)NC(=O)C12CCc1ccccc12 (stereo not given)
fold change (FC) [2]: 0.66 | fold change (FC) [4]: 0.07

Cc1ccc2c(c1)C1(CC2)C(=O)NC(=O)NC1=O
inhibition [1]: > 40% | fold change (FC) [2]: 0.87 | Activity [3]: < 10% | fold change (FC) [4]: 0.06

O=C1NC(=O)C2(CC(O)c3ccccc32)C(=O)N1 (stereo in doubt; 1t-1)
fold change (FC) [2]: 0.98 | fold change (FC) [4]: 0

NN=C1NC(=O)C2(CCc3ccccc32)C(=O)N1 (stereo not given)
fold change (FC) [2]: 0.66 | fold change (FC) [4]: -0.02

CC1Cc2ccccc2C12C(=O)NC(=O)NC2=O (stereo in doubt; 10g-2)
fold change (FC) [2]: 0.95 | fold change (FC) [4]: 0.13

CCC1(c2ccccc2)C(=O)NC(=O)NC1=O
inhibition [1]: 12% | fold change (FC) [2]: 0.88 | Activity ([3]; filed as modulator): 43% | fold change (FC) [4]: 0.43

CC1Cc2ccccc2C12C(=O)NC(=O)NC2=O (stereo in doubt; 10g-1)
fold change (FC) [2]: 0.9 | fold change (FC) [4]: 0.06

N#CSC1CC2(C(=O)NC(=O)NC2=O)c2ccccc21 (stereo in doubt; 1y-1)
fold change (FC) [2]: 0.61 | fold change (FC) [4]: 0.2

CN1C(=O)NC(=O)C2(CCCc3ccccc32)C1=O (stereo in doubt; 2h-1)
fold change (FC) [2]: 0.9 | fold change (FC) [4]: 0.13

N#CSC1CC2(C(=O)NC(=O)NC2=O)c2ccccc21 (stereo in doubt; 1y-2)
fold change (FC) [2]: 0.67 | fold change (FC) [4]: 0.3

O=C1NC(=S)NC(=O)C12CCc1ccccc12
fold change (FC) [2]: 0.78 | fold change (FC) [4]: 0.02

CCN1C(=O)NC(=O)C2(CCc3ccccc32)C1=O (stereo in doubt; 1i-1)
fold change (FC) [2]: 0.86 | fold change (FC) [4]: 0.05

CC1CC2(C(=O)NC(=O)NC2=O)c2ccccc21 (stereo in doubt; 11g-1)
fold change (FC) [2]: 0.96 | fold change (FC) [4]: 0.06

CCCN1C(=O)NC(=O)C2(CCc3ccccc32)C1=O (stereo in doubt; 1j-1)
fold change (FC) [2]: 0.95 | fold change (FC) [4]: 0.31

CN1C(=O)NC(=O)C2(CCCc3ccccc32)C1=O (stereo in doubt; 2h-2)
fold change (FC) [2]: 0.8 | fold change (FC) [4]: -0.01
